Source: patent EP4512427A1, “ANTIBODY-DRUG CONJUGATES BASED ON MOLECULAR GLUE DEGRADERS AND USES THEREOF” (Mablink Bioscience, priority 2023, dated 2025)

Experiments:
[1] = system: cancerous human cell lines; assay: In vitro cytotoxicity assay (MTT), side-by-side comparisons over the cell line panel; type: cell-based; details: side-by-side comparison (Figures 1-3, Table 3), result in words
Description: (§1) In vitro cytotoxicity of compounds of the disclosure was assessed on several cancerous human cell lines. Cells were plated in 96-well plates at an appropriate density depending on the cell line (between 1000 and 10 000 cells/well in 100µL of appropriate culture media) and incubated at 37°C for 24 hours. Serial dilutions of the tested compound previously dissolved in culture media (50µL) were added, and incubation was carried at 37°C out for 6 days. MTT (5mg/mL in PBS, 20µL, Sigma-Aldrich) was added into the wells, and incubation was continued for 1 to 4 hours at 37°C. Culture media was then carefully removed, and well content was homogeneously dissolved with acidified isopropanol. Absorbance values were measured on a microplate reader using a wavelength of 570 nm (with a reference wavelength of 690 nm). The IC50 concentration values compared to untreated control cells were determined using inhibition dose response curve fitting (GraphPad Prism 9). Exatecan mesylate (cat#HY-13631A) and CR8 (CAS# 294646-77-8; cat#HY-18340) were purchased from MedChemExpress (China).

JIMT-1 = assay: In vitro cytotoxicity assay (MTT); type: cell-based, human; details: 6 days incubation
Outline: (§2)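 Cells were seeded at 1000–10 000 cells/well depending on line, left 24 h at 37°C, then exposed to serial compound dilutions for 6 days at 37°C. MTT was added for 1–4 h, formazan dissolved in acidified isopropanol, absorbance read at 570 nm (reference 690 nm); IC50 versus untreated cells came from dose-response fits.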

SKBR-3 = assay: In vitro cytotoxicity assay (MTT); type: cell-based, human; details: 6 days incubation
Outline: as §2

MDA-MB-453 = assay: In vitro cytotoxicity assay (MTT); type: cell-based, human; details: 6 days incubation
Outline: as §2

MDA-MB-231 = assay: In vitro cytotoxicity assay (MTT); type: cell-based, human; details: 6 days incubation
Outline: as §2

NCI-N87 = assay: In vitro cytotoxicity assay (MTT); type: cell-based, human; details: 6 days incubation
Outline: as §2

BT-474 = assay: In vitro cytotoxicity assay (MTT); type: cell-based, human; details: BT-474, 6 days incubation, MTT
Outline: as §2

CycK = CycK protein quantification by Western Blot; type: cell-based, human
Description: 1×10^6 JIMT-1 cells were plated in 3mL of DMEM/FBS 90:10 (v/v) in 6-well plates and incubated overnight. Cells were treated with the compound 2384 of the invention with or without the proteasome inhibitor MG-132 (MedChemExpress, Cat HY-13259) for 2h. Cells were harvested, and protein were extracted using complete RIPA buffer (RIPA buffer, 1 mM DTT, 1M NaF, 100 mM sodium orthovanadate, phosphatase inhibitor buffer and protease inhibitors) for 1 hour on ice. Lysate were centrifuged 15min at 12 000g at 4°C. and proteins were mixed with 4x Laemmli Sample Buffer (Bio-Rad), heated at 95 °C for 5 mins and separated by SDS PAGE (PROTEAN TGX Stain-Free Gels, Bio-Rad). Proteins were then transferred onto PVDF membrane (iBlot®2 PVDF stacks, Invitrogen) using the iBlot2 device (Invitrogen) and blocked with TBS buffer (Intercept® Blocking Buffer, LI-COR Biosciences). Primary antibodies were incubated overnight at 4°C and secondary antibodies (IRDye Infrared Dyes from LI-COR Biosciences) 1 hour at room temperature. Used primary antibody were: anti-CycK (cat#A301-939A, Bethyl Laboratories, dil. 1:1000) and anti-β-actin (cat#A5441, Sigma-Aldrich, dil. 1:5000). Membranes were scanned using a c500 Imaging System (Azure Biosystems) and densitometric quantification were performed using imaged software. Protein levels were normalized against β-actin.

JIMT-1 cells = assay: Cell cycle arrest assessment (propidium iodide); type: cell-based, human
Description: 1×10^6 JIMT-1 cells were plated in 3mL of DMEM/FBS 90:10 (v/v) in 6-well plates and incubated overnight. Cells were treated with the compound 2384 of the invention or with CR8 for 24h. Cells were then harvested and washed three times with PBS. Cells were suspended into 300µL of propidium iodide working solution (0.05mg/mL) and incubated for 45 minutes at 4°C in the dark. Analysis was performed using a BD Fortessa flow cytometer controlled by BD FACSDiva software (BD Biosciences) and data were analyzed using FlowJo software (BD Bioscience).

MCF-7 = assay: In vitro cytotoxicity assay (MTT); type: cell-based; details: Homo sapiens, MCF7, 144 h, 6 days incubation
Description: as §1

HCT-116 = assay: In vitro cytotoxicity assay (MTT); type: cell-based; details: Homo sapiens, 144 h, 6 days incubation
Description: as §1

OE-19 = assay: In vitro cytotoxicity assay (MTT); type: cell-based; details: Homo sapiens, OE19, 144 h, 6 days incubation
Description: as §1

BXPC3 = assay: In vitro cytotoxicity assay (MTT); type: cell-based; details: Homo sapiens, BXPC-3, 144 h, 6 days incubation
Description: as §1

A549 = assay: In vitro cytotoxicity assay (MTT); type: cell-based; details: Homo sapiens, 144 h, 6 days incubation
Description: as §1

Caco-2 = assay: In vitro cytotoxicity assay (MTT); type: cell-based; details: Homo sapiens, 144 h, 6 days incubation
Description: as §1

HT-29 = assay: In vitro cytotoxicity assay (MTT); type: cell-based; details: Homo sapiens, 144 h, 6 days incubation
Description: as §1

in vitro = details: PAMPA, pH 7.4
Description: Stock solutions of compounds of the invention were prepared in dimethyl sulfoxide (DMSO) to a final concentration of 10 mM. Each stock solution was diluted to 50 µM in pH 7.4 Prisma HT buffer (pION) in the presence of 10% MeOH (v/v). 200 µL were added to each well of the donor plate in quintuplicate. […] The acceptor filter plate was carefully placed on top of the donor plate to form a "sandwich." The sandwich was incubated at 25°C for 5 h, at 300 rpm. UV-vis spectra of the solutions in the blank, reference, acceptor, and donor plates were measured using a Tecan Infinite 200 PRO M Nano Plus microplate reader.

BCRP = molecular target: T1, BCRP (Homo sapiens, UniProt Q9UNQ0); assay: BCRP efflux substrate assay in MDCK-BCRP; type: in vitro ADME; details: dog, pH 7.4, MDCK-BCRP
T1 construct: host or cells: MDCK-BCRP (Preadyport)
T1 sequence (Q9UNQ0 1-655): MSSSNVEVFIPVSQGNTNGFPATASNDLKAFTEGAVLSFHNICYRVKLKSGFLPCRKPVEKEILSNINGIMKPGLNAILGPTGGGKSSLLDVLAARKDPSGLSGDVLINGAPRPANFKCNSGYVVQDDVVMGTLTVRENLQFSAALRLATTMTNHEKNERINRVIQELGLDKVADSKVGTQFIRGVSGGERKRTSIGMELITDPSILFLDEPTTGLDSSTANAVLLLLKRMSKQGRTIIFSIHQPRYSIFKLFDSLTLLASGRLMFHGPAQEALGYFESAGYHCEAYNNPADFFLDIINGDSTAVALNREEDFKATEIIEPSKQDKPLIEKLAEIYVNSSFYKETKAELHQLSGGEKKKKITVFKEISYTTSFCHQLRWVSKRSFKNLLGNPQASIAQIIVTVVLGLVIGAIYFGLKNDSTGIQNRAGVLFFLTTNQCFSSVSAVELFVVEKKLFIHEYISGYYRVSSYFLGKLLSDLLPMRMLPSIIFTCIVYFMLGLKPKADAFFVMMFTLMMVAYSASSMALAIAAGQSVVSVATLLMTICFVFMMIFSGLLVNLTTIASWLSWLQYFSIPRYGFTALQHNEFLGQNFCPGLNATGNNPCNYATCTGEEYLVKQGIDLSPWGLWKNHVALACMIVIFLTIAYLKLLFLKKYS
Description: (§3) MDR1 and BCRP efflux substrate assays were conducted in MDCK-MDR1 and MDCK-BCRP in vitro models (Preadyport™, Solvo Biotech) at Symeres (Nederland). Compound of the invention (donor well concentration of 5µM) were incubated in cell monolayer 24-transwell Preadyport system, using Preadyport recommended pH 7.4 assay buffer (donor and receiver wells). After 60 min of incubation (no shaking), samples are collected and suspended into triple volume of 66% cold acetonitrile. Samples are stored at -20°C until thawed, centrifuged and analyzed by LC-MS. Quinidine was used a positive control for the MDR1 assay, and prazosin was used as a positive control for the BCRP assay. Exatecan was used as a control, known not to be an MDR1 substrate. Residual DMSO content from compounds stock solutions was below 1% (v/v). The assay was performed in duplicate. The quantification of test compounds in donor or receptor compartment is conducted using relative LC/MS peak areas (samples of initial incubation solutions are used as a single point calibrator), without any spiked standard samples. The data is used for estimating apparent permeability (Papp) and calculation of efflux ratio.

KB-1 = assay: In vitro cytotoxicity assay (MTT); type: cell-based; details: Homo sapiens, KB16, 144 h, 6 days incubation
Description: as §1

MDR1 = molecular target: T2, MDR1 (Homo sapiens, UniProt P08183); assay: MDR1 efflux substrate assay in MDCK-MDR1; type: in vitro ADME; details: dog, MDCK-MDR1, 5µM, 60 min, pH 7.4
T2 construct: host or cells: MDCK-MDR1 (Preadyport)
T2 sequence (P08183 whole entry): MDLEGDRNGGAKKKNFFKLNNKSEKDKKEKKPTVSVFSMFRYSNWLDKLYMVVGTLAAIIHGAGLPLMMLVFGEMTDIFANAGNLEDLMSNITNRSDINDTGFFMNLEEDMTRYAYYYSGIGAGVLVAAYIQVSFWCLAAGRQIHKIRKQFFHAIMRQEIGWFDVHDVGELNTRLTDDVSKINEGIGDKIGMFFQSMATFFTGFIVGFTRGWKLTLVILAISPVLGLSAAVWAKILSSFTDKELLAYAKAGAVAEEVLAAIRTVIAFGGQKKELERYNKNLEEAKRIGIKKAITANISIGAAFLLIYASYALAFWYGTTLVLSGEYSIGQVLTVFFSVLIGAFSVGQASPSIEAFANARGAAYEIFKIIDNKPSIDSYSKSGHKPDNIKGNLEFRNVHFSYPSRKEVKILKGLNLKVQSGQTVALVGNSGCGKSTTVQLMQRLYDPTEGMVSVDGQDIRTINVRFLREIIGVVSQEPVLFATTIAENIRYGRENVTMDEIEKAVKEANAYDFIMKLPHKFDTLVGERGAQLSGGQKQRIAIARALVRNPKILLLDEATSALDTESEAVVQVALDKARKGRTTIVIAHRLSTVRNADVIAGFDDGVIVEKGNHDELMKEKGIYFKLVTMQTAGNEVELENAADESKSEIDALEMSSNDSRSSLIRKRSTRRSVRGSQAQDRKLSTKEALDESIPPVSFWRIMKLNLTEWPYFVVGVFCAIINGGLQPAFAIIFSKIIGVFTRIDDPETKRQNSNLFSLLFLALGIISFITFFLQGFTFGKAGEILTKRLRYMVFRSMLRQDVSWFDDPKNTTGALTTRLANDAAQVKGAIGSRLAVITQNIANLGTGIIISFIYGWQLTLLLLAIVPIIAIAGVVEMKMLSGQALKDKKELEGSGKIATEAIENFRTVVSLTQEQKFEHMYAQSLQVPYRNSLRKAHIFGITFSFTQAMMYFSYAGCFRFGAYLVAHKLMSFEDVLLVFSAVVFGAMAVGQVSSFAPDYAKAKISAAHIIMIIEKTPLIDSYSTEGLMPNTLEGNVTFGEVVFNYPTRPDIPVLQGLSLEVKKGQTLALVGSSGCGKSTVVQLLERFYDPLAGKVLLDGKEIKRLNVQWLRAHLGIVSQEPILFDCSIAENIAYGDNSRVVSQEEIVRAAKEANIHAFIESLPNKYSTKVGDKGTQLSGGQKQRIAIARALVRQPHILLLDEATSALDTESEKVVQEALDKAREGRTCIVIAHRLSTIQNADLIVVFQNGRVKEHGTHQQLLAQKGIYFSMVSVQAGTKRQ
Description: as §3

[2] = Homo sapiens, MDA-MB-453, 144 h
[3] = Homo sapiens, MDA-MB-231, 144 h

| SMILES | IC50 (JIMT-1; Homo sapiens, 144 h) | IC50 (SKBR-3; Homo sapiens, SK-BR-3, 144 h) | IC50 (MDA-MB-453; [2]) | IC50 (MDA-MB-231; [3]) | IC50 (NCI-N87; Homo sapiens, NCI-N87, 144 h) | IC50 (BT-474; Homo sapiens, BT-474, 144 h) | IC50 (MCF-7) | IC50 (HCT-116) | IC50 (OE-19) | IC50 (BXPC3) | IC50 (A549) | IC50 (Caco-2) | IC50 (HT-29) | other results |
| --- | --- | --- | --- | --- | --- | --- | --- | --- | --- | --- | --- | --- | --- | --- |
| CC[C@H](CO)Nc1nc(NCc2ccc(-c3ccccn3)cc2)c2ncn(C(C)C)c2n1 [CR8, reference compound] | – | – | – | – | – | – | – | – | – | – | – | – | – | in vitro cytotoxicity potency [1]: potencies in the high nanomolar range; IC50 (JIMT-1): 25.2 nM; IC50 (SKBR-3): 30.6 nM; IC50 (MDA-MB-453): 40.3 nM; IC50 (MDA-MB-231): 10.4 nM; IC50 (NCI-N87): 62.2 nM; IC50 (BT-474): 18.4 nM; CycK degradation (CycK; 10nM, 2h treatment of JIMT-1 cells): no CycK was observed; cell cycle analysis (JIMT-1 cells; 24h at 50 nM): arrest in G2/M phase; cell cycle analysis (JIMT-1 cells; 24h at 2, 5, and 10 nM): no impact on cell cycle |
| Brc1cnn2c(NCc3ccc(-c4ccccn4)cc3)nc(NC3CCNCC3)nc12 [Compound 2388, 8-bromo-N2-(piperidin-4-yl)-N4-(4-(pyridin-2-yl)benzyl)pyrazolo[1,5-a][1,3,5]triazine-2,4-diamine] | 0.64 nM | 1.68 nM | 1.27 nM | 0.76 nM | 1.4 nM | 1.64 nM | 5.4 nM | 1.66 nM | 3.77 nM | 1.97 nM | 0.65 nM | 4.46 nM | 0.23 nM | – |
| CC(C)c1cnn2c(NCc3ccc(-c4ccccn4)cc3)nc(N[C@H]3CC[C@H](N)CC3)nc12 [Compound 2420, N2-((1r,4r)-4-aminocyclohexyl)-8-isopropyl-N4-(4-(pyridin-2-yl)benzyl)pyrazolo[1,5-a][1,3,5]triazine-2,4-diamine] | 0.61 nM | 3.25 nM | 2.73 nM | 0.7 nM | 4.93 nM | 3.41 nM | 7.78 nM | 4.4 nM | 6.91 nM | – | 1.99 nM | 56.1 nM | 1.74 nM | – |
| CC(C)c1cnn2c(NCc3ccc(-c4ccccn4)cc3)nc(NC3CCNCC3)nc12 [Compound 2428] | 0.92 nM | 1.94 nM | 3.11 nM | 2.31 nM | 4.5 nM | 3.73 nM | 9.12 nM | 5.31 nM | 7.84 nM | – | 2.22 nM | 24.2 nM | 0.83 nM | – |
| NC[C@H]1CC[C@H](Nc2nc(NCc3ccc(-c4ccccn4)cc3)n3ncc(Br)c3n2)CC1 [Compound 2636] | 0.12 nM | 0.17 nM | 1.97 nM | 1.46 nM | 2.46 nM | 3.68 nM | 33.1 nM | – | – | 4.68 nM | – | – | 1.28 nM | Papp at 5 h, 50 µM (in vitro): 67 ×10⁻⁶ cm/s; efflux ratio at 60 min, 5 µM (BCRP; read-out: Efflux ratio B/A): 6.21; Papp A→B at 60 min, 5 µM (BCRP; 5µM, 60 min, read-out: Papp A (donor) to B (acceptor)): 3 ×10⁻⁶ cm/s; Papp B→A at 60 min, 5 µM (BCRP; 5µM, 60 min, read-out: Papp B (acceptor) to A (donor)): 18.6 ×10⁻⁶ cm/s; IC50 (KB-1): 8.1 nM; Papp A→B at 60 min, 5 µM (MDR1; read-out: Papp A (donor) to B (acceptor)): < 12.9 ×10⁻⁶ cm/s; Papp B→A at 60 min, 5 µM (MDR1; read-out: Papp B (acceptor) to A (donor)): 30.8 ×10⁻⁶ cm/s |
| CN(C)C/C=C/C(=O)Nc1ccc(C(=O)N2CCC[C@@H](Nc3ncc(Cl)c(-c4c[nH]c5ccccc45)n3)C2)cc1 [THZ-531, reference compound] | – | – | – | – | – | – | – | – | – | – | – | – | – | CycK protein content (CycK; JIMT-1 cells, 1µM, 2h): no impact on CycK protein content |
